Test results reported in patent US10039753B2, “Imidazo[4,5-c]quinoline and imidazo[4,5-c][1,5]naphthyridine derivatives as LRRK2 inhibitors” (Pfizer Inc., priority 2015, dated 2018).
Structures can show the parent of a compound that is named as a salt.

What was measured:
[1] = biological target: T1, GST-tagged truncated LRRK2 (Homo sapiens, UniProt Q5S007); assay: LRRK2 Assay, Format 2 (Lantha Screen), WT; type: biochemical; details: geometric mean of 2-4 determinations unless otherwise indicated (a: >=5; b: single determination)
T1 construct: GST-tagged truncated LRRK2 from Invitrogen (Cat # PV4874); GST; purchased Invitrogen PV4874
T1 sequence (Q5S007 970-2527 limits assumed): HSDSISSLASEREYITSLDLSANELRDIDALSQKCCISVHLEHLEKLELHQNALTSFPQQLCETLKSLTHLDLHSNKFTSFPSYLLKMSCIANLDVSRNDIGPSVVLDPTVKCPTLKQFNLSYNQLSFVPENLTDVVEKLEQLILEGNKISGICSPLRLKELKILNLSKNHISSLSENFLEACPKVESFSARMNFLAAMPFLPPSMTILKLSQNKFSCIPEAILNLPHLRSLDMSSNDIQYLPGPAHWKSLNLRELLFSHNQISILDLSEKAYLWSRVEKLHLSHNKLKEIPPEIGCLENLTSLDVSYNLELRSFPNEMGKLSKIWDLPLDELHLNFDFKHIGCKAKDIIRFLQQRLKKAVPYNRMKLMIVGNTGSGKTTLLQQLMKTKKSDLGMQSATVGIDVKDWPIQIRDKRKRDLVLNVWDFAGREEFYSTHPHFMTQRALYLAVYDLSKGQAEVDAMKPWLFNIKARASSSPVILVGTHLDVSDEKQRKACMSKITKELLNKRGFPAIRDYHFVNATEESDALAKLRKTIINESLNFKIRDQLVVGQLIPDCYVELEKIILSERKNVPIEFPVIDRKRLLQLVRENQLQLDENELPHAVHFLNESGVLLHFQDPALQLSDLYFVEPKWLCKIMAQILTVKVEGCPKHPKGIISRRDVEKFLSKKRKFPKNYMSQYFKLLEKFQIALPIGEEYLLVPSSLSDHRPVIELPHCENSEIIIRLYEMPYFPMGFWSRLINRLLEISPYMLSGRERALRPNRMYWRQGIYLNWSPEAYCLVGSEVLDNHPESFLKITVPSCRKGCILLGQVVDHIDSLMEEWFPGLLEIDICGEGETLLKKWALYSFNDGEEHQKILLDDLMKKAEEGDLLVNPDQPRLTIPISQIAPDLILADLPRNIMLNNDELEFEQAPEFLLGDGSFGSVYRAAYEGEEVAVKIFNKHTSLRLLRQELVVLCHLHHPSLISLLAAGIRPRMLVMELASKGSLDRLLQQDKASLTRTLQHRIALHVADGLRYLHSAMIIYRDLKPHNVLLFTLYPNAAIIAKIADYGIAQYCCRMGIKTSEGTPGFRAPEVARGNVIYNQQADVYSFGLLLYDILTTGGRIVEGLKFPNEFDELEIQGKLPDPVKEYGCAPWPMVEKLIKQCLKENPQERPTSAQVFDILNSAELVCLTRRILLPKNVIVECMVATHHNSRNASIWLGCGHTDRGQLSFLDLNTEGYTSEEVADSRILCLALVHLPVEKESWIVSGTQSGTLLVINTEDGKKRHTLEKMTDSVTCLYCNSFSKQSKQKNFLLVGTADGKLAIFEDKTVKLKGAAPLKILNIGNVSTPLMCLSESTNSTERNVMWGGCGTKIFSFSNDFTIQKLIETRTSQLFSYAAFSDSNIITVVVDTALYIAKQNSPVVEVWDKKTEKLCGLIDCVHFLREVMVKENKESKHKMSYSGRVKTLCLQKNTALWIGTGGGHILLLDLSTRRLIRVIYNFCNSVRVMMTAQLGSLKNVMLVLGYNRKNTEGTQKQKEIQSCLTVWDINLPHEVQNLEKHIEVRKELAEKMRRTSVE
Experimental: (§1) LRRK2 kinase activity was measured using Lantha Screen technology from Invitrogen. GST-tagged truncated LRRK2 from Invitrogen (Cat # PV4874) was incubated with a fluorescein-labeled peptide substrate based upon ezrin/radixin/moesin (ERM), also known as LRRKtide (Invitrogen cat # PR8976A), in the presence of a dose response of compound. Upon completion, the assay was stopped and detected with a terbium labeled anti-phospho-ERM antibody (Invitrogen, cat # PR8975A). […] Using Echo acoustic dispensing, 60 nL of compound was transferred to a low volume Corning 384-well assay plate. 3 μL of a working solution of substrate (200 nM LRRKtide, […]) prepared in assay buffer (50 mM HEPES, pH 7.5, 3 mM MgCl2, with 2 mM DTT and 0.01% Brij35 added fresh) was added to the 60 nL compound assay plate. The kinase reaction was started with […] of a working solution of LRRK2 enzyme at a concentration of […]. The final reaction concentrations were 100 nM LRRKtide, […], […] LRRK2 enzyme and a compound dose response with a top dose of 3 mM. The reaction was allowed to progress at room temperature for 30 minutes and then stopped with the addition of […] of detection buffer (20 mM Tris pH 7.6, 0.01% NP-40, 6 mM EDTA with 2 nM terbium labeled anti-phospho-ERM). After an incubation of 1 hour at room temperature, the plate was read on an Envision with an excitation wavelength of 340 nm and a reading emission at both 520 nm and 495 nm. The ratio of the 520 nm and 495 nm emission was used to analyze the data. Inhibition of mutant G2019S LRRK2 (Invitrogen cat # PV4881) was measured in the exact same method. All final concentrations of substrate ATP and enzyme were the same.

[2] = biological target: mutant G2019S LRRK2 (Homo sapiens, UniProt Q5S007, G2019S); assay: LRRK2 Assay, Format 2 (Lantha Screen), G2019S mutant; type: biochemical; design: purchased Invitrogen PV4881; details: geometric mean of 2-4 determinations unless otherwise indicated (a: >=5; b: single determination); read-out: LRRK2, Format 2 G2019S IC50
Chain of mutant G2019S LRRK2 (Q5S007 970-2527 G2019S limits assumed): as the sequence (Q5S007 970-2527 limits assumed) above, with G1050S counted along it
Experimental: as §1

Cc1cc(Cc2nc3cnc4ccc(C#N)cc4c3n2[C@H]2CCCC[C@H]2O)no1 (racemic) [Example 242, 1-(cis-2-hydroxycyclohexyl)-2-[(5-methyl-1,2-oxazol-3-yl)methyl]-1H-imidazo[4,5-c]quinoline-8-carbonitrile, formate salt]
IC50 [1]: 122 nM | IC50 [2]: 119 nM

Cc1cc(Cc2nc3cnc4ccc(C#N)cc4c3n2[C@H]2CCC[C@H]2F)no1 (racemic) [Example 245, 1-(cis-2-fluorocyclopentyl)-2-[(5-methyl-1,2-oxazol-3-yl)methyl]-1H-imidazo[4,5-c]quinoline-8-carbonitrile, formate salt]
IC50 [1]: 14.3 nM | IC50 [2]: 18.6 nM

Cc1cn(Cc2nc3cnc4ccc(Cl)cc4c3n2[C@H]2CC[C@@H](F)C2)nn1 (single isomer, unassigned) [Example 93, 8-Chloro-1-(cis-3-fluorocyclopentyl)-2-[(4-methyl-1H-1,2,3-triazol-1-yl)methyl]-1H-imidazo[4,5-c]quinoline]
IC50 [1]: 5.62 nM | IC50 [2]: 8.18 nM

Cc1cnn(Cc2nc3cnc4ccc(C#N)cc4c3n2[C@H]2CC[C@@H](F)C2)c1 (single isomer, unassigned) [Example 94, 1-[cis-3-Fluorocyclopentyl]-2-[(4-methyl-1H-pyrazol-1-yl)methyl]-1H-imidazo[4,5-c]quinoline-8-carbonitrile]
IC50 [1]: 6.33 nM | IC50 [2]: 6.01 nM

Cc1cc(Cc2nc3cnc4ccc(C#N)cc4c3n2[C@@H]2CC[C@H](F)C2)no1 (single isomer, unassigned) [Example 97]
IC50 [1]: 5.14 nM | IC50 [2]: 7.79 nM

C[C@@H]1C[C@H](n2c(C(F)c3ccon3)nc3cnc4ccc(Cl)cc4c32)CCO1 (single isomer, unassigned) [Example 237]
IC50 [1]: 4 nM | IC50 [2]: 3.92 nM

C[C@@H]1C[C@H](n2c(C(F)c3ccon3)nc3cnc4ccc(Cl)cc4c32)CCO1 (single isomer, unassigned) [Example 238]
IC50 [1]: 3.88 nM | IC50 [2]: 3.82 nM

Cc1cn(Cc2nc3cnc4ccc(Cl)cc4c3n2[C@H]2CC[C@@H](F)C2)nn1 (single isomer, unassigned) [Example C55, 8-chloro-1-(cis-3-fluorocyclopentyl)-2-[(4-methyl-1H-1,2,3-triazol-1-yl)methyl]-1H-imidazo[4,5-c]quinoline]
IC50 [1]: 18.2 nM | IC50 [2]: 22.7 nM

Cc1cnn(Cc2nc3cnc4ccc(C#N)cc4c3n2[C@H]2CC[C@@H](F)C2)c1 (single isomer, unassigned) [Example C58, 1-[cis-3-fluorocyclopentyl]-2-[(4-methyl-1H-pyrazol-1-yl)methyl]-1H-imidazo[4,5-c]quinoline-8-carbonitrile]
IC50 [1]: 21.9 nM | IC50 [2]: 25.6 nM

Cc1cc(Cc2nc3cnc4ccc(C#N)cc4c3n2[C@H]2CC[C@@H](F)C2)no1 (single isomer, unassigned) [Example C66]
IC50 [1]: 29.8 nM | IC50 [2]: 42.2 nM

Cc1cc(Cc2nc3cnc4ccc(C#N)cc4c3n2[C@@H]2CC[C@H](F)C2)on1 (single isomer, unassigned; ent-1) [Example 118, 1-(cis-3-fluorocyclopentyl)-2-[(3-methyl-1,2-oxazol-5-yl)methyl]-1H-imidazo[4,5-c]quinoline-8-carbonitrile, ENT-1]
IC50 [1]: 4.15 nM | IC50 [2]: 6.19 nM

COCc1cn(Cc2nc3cnc4ccc(C#N)cc4c3n2[C@@H]2CC[C@H](F)C2)nn1 (single isomer, unassigned; ent-1) [Example 132, 1-(cis-3-fluorocyclopentyl)-2-{[4-(methoxymethyl)-1H-1,2,3-triazol-1-yl]methyl}-1H-imidazo[4,5-c]quinoline-8-carbonitrile, ENT-1]
IC50 [1]: 7.49 nM | IC50 [2]: 10.8 nM

Cc1cc(Cc2nc3cnc4ccc(C#N)cc4c3n2C2CCCC2(F)F)no1 (single isomer, unassigned; ent-1) [Example 143, 1-(2,2-difluorocyclopentyl)-2-[(5-methyl-1,2-oxazol-3-yl)methyl]-1H-imidazo[4,5-c]quinoline-8-carbonitrile, ENT-1]
IC50 [1]: 53.9 nM

Cc1cc(Cc2nc3cnc4ccc(C#N)cc4c3n2[C@@H]2CCC[C@@H]2F)no1 (single isomer, unassigned; ent-1) [Example 146, 1-(cis-2-fluorocyclopentyl)-2-[(5-methyl-1,2-oxazol-3-yl)methyl]-1H-imidazo[4,5-c]quinoline-8-carbonitrile, ENT-1]
IC50 [1]: 17.8 nM | IC50 [2]: 29.9 nM

Cc1nn2cc(Cc3nc4cnc5ccc(C#N)cc5c4n3[C@@H]3CC[C@H](F)C3)nc2s1 (single isomer, unassigned; ent-1) [Example 168, 1-(cis-3-fluorocyclopentyl)-2-[(2-methylimidazo[2,1-b][1,3,4]thiadiazol-6-yl)methyl]-1H-imidazo[4,5-c]quinoline-8-carbonitrile, ENT-1]
IC50 [1]: 7.33 nM | IC50 [2]: 11.5 nM

N#CCc1nc2cnc3ccc(F)cc3c2n1[C@@H]1CC[C@H](F)C1 (single isomer, unassigned; ent-1) [Example 170, {8-fluoro-1-(cis-3-fluorocyclopentyl)-1H-imidazo[4,5-c]quinolin-2-yl}acetonitrile, ENT-1]
IC50 [1]: 64.4 nM | IC50 [2]: 106 nM

CC1(C)CC(n2c(Cc3cc(C(F)(F)F)on3)nc3cnc4ccc(C#N)cc4c32)CCO1 (single isomer, unassigned; ent-1) [Example 176, 1-(2,2-dimethyltetrahydro-2H-pyran-4-yl)-2-{[5-(trifluoromethyl)-1,2-oxazol-3-yl]methyl}-1H-imidazo[4,5-c]quinoline-8-carbonitrile, ENT-1]
IC50 [1]: 13 nM | IC50 [2]: 12.7 nM

Cc1cn(Cc2nc3cnc4ccc(C#N)cc4c3n2C2CCCC2(F)F)nn1 (single isomer, unassigned; ent-1) [Example 196, 1-(2,2-difluorocyclopentyl)-2-[(4-methyl-1H-1,2,3-triazol-1-yl)methyl]-1H-imidazo[4,5-c]quinoline-8-carbonitrile, ENT-1]
IC50 [1]: 18.8 nM | IC50 [2]: 15.8 nM

N#Cc1ccc2ncc3nc(Cn4cc(C(F)(F)F)cn4)n([C@@H]4CC[C@H](F)C4)c3c2c1 (single isomer, unassigned; ent-1) [Example 201, 1-(cis-3-fluorocyclopentyl)-2-{[4-(trifluoromethyl)-1H-pyrazol-1-yl]methyl}-1H-imidazo[4,5-c]quinoline-8-carbonitrile, ENT-1]
IC50 [1]: 7.47 nM | IC50 [2]: 11.3 nM

N#Cc1ccc2ncc3nc(Cn4cc(C5CC5)nn4)n([C@@H]4CC[C@H](F)C4)c3c2c1 (single isomer, unassigned; ent-1) [Example 202, 2-[(4-cyclopropyl-1H-1,2,3-triazol-1-yl)methyl]-1-(cis-3-fluorocyclopentyl)-1H-imidazo[4,5-c]quinoline-8-carbonitrile, ENT-1]
IC50 [1]: 15.5 nM | IC50 [2]: 20.4 nM

Cc1cc(Cc2nc3cnc4ccc(Cl)cc4c3n2CCF)no1 [Example 181, 8-chloro-1-(2-fluoroethyl)-2-[(5-methyl-1,2-oxazol-3-yl)methyl]-1H-imidazo[4,5-c]quinoline]
IC50 [1]: 99.5 nM

FCCn1c(Cc2cnccn2)nc2cnc3ccc(Cl)cc3c21 [Example 182, 8-chloro-1-(2-fluoroethyl)-2-(pyrazin-2-ylmethyl)-1H-imidazo[4,5-c]quinoline]
IC50 [1]: 67.4 nM

CCC(F)(F)Cn1c(Cc2noc(C)n2)nc2cnc3ccc(Cl)cc3c21 [Example 185, 8-chloro-1-(2,2-difluorobutyl)-2-[(5-methyl-1,2,4-oxadiazol-3-yl)methyl]-1H-imidazo[4,5-c]quinoline]
IC50 [1]: 73.2 nM

CO[C@H]1C[C@H](n2c(Cn3cc(C)nn3)nc3cnc4ccc(Cl)cc4c32)C1 [Example 188, 8-chloro-1-[(1r,3r)-3-methoxycyclobutyl]-2-[(4-methyl-1H-1,2,3-triazol-1-yl)methyl]-1H-imidazo[4,5-c]quinoline]
IC50 [1]: 110 nM

C[C@@H]1C[C@H](n2c(Cc3nc(C4CC4)n(C)n3)nc3cnc4ccc(Cl)cc4c32)CCO1 [Example 191, 8-chloro-2-[(5-cyclopropyl-1-methyl-1H-1,2,4-triazol-3-yl)methyl]-1-[(2R,4R)-2-methyltetrahydro-2H-pyran-4-yl]-1H-imidazo[4,5-c]quinoline]
IC50 [1]: 73.5 nM

C[C@@H]1C[C@H](n2c(Cc3cn4c(n3)COCC4)nc3cnc4ccc(Cl)cc4c32)CCO1 [Example 192, 8-chloro-2-(5,6-dihydro-8H-imidazo[2,1-c][1,4]oxazin-2-ylmethyl)-1-[(2R,4R)-2-methyltetrahydro-2H-pyran-4-yl]-1H-imidazo[4,5-c]quinoline]
IC50 [1]: 12.6 nM
